Assay results: patent US20260327211A1, “MODULATORS OF A POTASSIUM CHANNEL AND OF TRPV1 CHANNEL AND USES THEREOF” (Bsense Bio Therapeutics Ltd., priority 2023, published 2026)
One block for each compound: values may come before it.

Columns and labels:
hKv7.2/3 = biological target: T1, hKv7.2/3 (Homo sapiens, UniProt O43525+O43526); test: Kv7.2/7.3 whole-cell electrophysiology in CHO cells; type: cell-based; settings: 100 nM, −40 mV, N=4, read-out: Kv7.2/3 current activation
T1 construct: host or cells: CHO
T1 sequence (O43525 whole entry): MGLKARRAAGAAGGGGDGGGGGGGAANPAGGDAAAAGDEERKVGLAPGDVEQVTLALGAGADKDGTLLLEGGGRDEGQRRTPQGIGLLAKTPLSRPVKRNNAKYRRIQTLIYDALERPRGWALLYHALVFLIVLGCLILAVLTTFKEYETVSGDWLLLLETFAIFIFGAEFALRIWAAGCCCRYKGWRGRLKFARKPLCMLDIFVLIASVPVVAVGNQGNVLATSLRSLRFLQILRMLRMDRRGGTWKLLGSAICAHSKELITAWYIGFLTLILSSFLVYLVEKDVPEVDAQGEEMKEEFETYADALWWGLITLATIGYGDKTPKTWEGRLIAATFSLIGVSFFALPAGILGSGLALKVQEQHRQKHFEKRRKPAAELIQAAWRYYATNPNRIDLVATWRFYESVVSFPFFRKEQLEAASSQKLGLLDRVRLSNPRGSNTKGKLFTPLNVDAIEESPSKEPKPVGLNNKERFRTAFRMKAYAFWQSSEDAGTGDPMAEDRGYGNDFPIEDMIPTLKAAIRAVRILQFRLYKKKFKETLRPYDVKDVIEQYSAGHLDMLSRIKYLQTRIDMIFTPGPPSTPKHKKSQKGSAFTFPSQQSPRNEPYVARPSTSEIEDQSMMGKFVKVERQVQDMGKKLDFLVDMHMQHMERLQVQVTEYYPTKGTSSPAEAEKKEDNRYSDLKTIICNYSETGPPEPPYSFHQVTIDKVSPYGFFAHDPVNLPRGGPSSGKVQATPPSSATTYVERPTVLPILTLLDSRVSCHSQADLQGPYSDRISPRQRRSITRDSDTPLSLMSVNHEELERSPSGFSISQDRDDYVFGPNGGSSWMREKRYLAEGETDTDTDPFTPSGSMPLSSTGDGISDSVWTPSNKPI
T1 sequence (O43526 whole entry): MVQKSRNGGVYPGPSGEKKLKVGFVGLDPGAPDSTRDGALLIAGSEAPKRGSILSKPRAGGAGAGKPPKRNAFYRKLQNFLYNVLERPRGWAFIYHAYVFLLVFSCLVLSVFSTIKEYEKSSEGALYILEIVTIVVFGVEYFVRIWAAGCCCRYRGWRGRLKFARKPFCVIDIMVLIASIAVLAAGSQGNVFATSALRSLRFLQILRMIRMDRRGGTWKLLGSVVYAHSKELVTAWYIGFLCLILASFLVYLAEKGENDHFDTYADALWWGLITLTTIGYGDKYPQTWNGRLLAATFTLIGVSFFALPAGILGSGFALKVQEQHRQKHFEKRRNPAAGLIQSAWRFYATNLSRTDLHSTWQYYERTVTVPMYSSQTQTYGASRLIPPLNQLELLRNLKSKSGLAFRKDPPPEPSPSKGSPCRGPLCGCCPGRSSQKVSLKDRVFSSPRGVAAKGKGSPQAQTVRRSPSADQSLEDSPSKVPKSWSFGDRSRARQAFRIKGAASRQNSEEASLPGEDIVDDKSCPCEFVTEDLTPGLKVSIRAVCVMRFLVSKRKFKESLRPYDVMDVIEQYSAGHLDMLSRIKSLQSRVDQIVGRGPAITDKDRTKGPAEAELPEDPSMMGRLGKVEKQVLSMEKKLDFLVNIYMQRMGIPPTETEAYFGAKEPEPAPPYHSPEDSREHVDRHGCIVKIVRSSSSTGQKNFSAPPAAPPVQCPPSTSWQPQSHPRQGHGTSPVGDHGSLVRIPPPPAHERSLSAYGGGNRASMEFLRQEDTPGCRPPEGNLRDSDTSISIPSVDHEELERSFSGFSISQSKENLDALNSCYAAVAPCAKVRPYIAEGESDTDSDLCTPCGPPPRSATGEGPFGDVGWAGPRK
Excerpt: Extracellular (Bath) solution: The solution was composed of (in mM): NaCl, 140; KCl, 4; CaCl2, 1.8; MgCl2, 1.2; Glucose, 11; HEPES, 5.5. pH was adjusted to 7.3 with NaOH. Osmolarity was adjusted to 310 mOsm with Sucrose.
Intracellular (Pipette) solution: Pipettes were pulled from borosilicate glass (Warner Instrument Corp, USA) with a resistance of 3-7 MΩ and were filled with internal solution composed of (in mM): KCl, 130; MgCl2, 1; K ATP, 5; EGTA, 5 (replaced by BAPTA in rat DRG neurons recordings); HEPES, 10. pH was adjusted to 7.3 with KOH. Osmolarity was adjusted to 290 mOsm with Sucrose.
A programmable valve-linked pressurized perfusion system (AutoMate Scientific) was used for local application of compounds nearby the cell recorded in a consistent flow rate of 2-3 ml/min. Series resistance was corrected and data were sampled at 5 kHz and low pass filtered at 2.4 kHz using MultiClamp 700B amplifier with pCLAMP11 software (Molecular Devices, USA). […]
The current obtained at −40 mV membrane potential when test compound is injected is divided by the averaged current at −40 mV, recorded before test-compound application and following its washout, to evaluate the drug/control response.

cannabinoid 1 receptor = biological target: T2, cannabinoid 1 receptor (Homo sapiens, UniProt P21554); test: Functional selectivity panel, cannabinoid 1 receptor; type: biochemical
T2 construct: Eurofins DiscoverX, USA
T2 sequence (P21554 whole entry): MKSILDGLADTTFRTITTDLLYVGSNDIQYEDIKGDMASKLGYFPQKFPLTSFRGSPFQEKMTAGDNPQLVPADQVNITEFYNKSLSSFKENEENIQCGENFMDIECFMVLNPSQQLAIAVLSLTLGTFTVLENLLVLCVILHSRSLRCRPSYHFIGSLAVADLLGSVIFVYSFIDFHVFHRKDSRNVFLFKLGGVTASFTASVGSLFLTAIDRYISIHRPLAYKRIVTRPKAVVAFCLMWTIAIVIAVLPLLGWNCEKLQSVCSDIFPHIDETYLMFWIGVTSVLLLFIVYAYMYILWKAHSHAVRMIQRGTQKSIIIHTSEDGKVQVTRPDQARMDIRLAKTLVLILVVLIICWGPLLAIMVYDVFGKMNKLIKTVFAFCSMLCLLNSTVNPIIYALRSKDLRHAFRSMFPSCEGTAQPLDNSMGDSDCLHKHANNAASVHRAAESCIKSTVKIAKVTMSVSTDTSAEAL
Protocol: A broad panel of 78 recombinant targets was tested for pharmacologic activity in vitro through a variety of functional assays (Eurofins DiscoverX, USA), as part of the National Institute of Neurological Disorders and Stroke (NINDS) Preclinical Screening Platform for Pain (PSPP) program. The biological targets for the in vitro profiling have been selected based on avoiding opioid receptor stimulation and targets known to be associated with adverse events or targeted by drugs of abuse. […] For each test, a reference compound was evaluated at the target of interest as a positive control.

[1] = tested on: Distal Tibial Injury (DTI) rats; test: Distal Tibial Injury (DTI) model, von Frey; type: in vivo, rat; settings: 100 mg/kg oral, 6 hours post-dose
Protocol: All animal experiments were carried out according to the Guide for the Care and Use of Laboratory Animals (2011 edition) and approved by the Israel National Institutional Animal Care and Use Committee (IACUC). Young adult male SD rats (Envigo RMS, Israel), were used for in vivo efficacy: Spared Nerve Injury (SNI), Distal Tibial Injury (DTI) and Post-operative Pain (POP), 200-220 grams, Chronic Post-Ischemia Pain (CPIP) 275-325 grams, Monosodium iodoacetate-induced osteoarthritis (MIA-OA) 180-220 grams; for in vivo safety: 200-250 grams at study initiation. […] The health status of the animals used in this study was examined upon their arrival. Only animals in good health were acclimatized to laboratory conditions and were used in the studies. All studies were performed following at least five days of animal acclimation. During acclimation and throughout the entire study duration, animals were housed within a limited-access rodent facility and kept in groups with a maximum of 2-3 rats per polypropylene cage. The cages were fitted with solid bottoms and filled with sterile wood shavings as bedding material. Animals were provided ad libitum with a commercial, sterile rodent diet and had free access to drinking water that was supplied to each cage via polyethylene bottles with stainless steel sipper tubes. […] Water was monitored periodically. […]

OCT1 = OCT1 (Homo sapiens, UniProt O15245); test: Transporter substrate, OCT1; type: in vitro ADME; settings: role: substrate
Sequence of OCT1 (O15245 whole entry): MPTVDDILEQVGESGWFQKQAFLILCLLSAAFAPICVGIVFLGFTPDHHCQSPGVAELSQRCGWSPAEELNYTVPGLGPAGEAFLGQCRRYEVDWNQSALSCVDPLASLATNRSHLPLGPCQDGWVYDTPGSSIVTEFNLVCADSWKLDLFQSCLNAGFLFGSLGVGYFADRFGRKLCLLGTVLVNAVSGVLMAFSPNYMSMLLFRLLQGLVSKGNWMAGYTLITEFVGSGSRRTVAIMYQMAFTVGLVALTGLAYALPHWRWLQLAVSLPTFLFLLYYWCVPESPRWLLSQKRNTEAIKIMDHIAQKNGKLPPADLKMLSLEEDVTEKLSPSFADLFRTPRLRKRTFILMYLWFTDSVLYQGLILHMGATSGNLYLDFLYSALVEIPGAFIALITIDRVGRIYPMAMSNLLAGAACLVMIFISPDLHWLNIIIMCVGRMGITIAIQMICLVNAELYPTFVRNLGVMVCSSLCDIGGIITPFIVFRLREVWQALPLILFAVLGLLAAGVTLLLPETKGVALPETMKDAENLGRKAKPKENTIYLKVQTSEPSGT
Protocol: Additionally, compound 760 was tested for its capability to act as a transporter substrate for various transporters, and was not found to be a transporter substrate for any of the tested transporters.

activation at 0.1 µM (hKv7.2/3): 24.4 ± 10.4%
Compound: O=C(Cc1cc(-n2cc(Cl)c3cc(Cl)cc(Cl)c32)ccc1F)NCCO [Compound 627]

IC50 (cannabinoid 1 receptor): 1.4 µM
Compound: O=C(Cc1cncc(-n2cc(Cl)c3cc(Cl)cc(Cl)c32)c1)N[C@@H]1COC[C@H]1O [Compound 661]
Reversal of mechanical PWT [1]: 45.9%

Compound: O=C(Cc1nccc(-n2cc(Cl)c3cc(Cl)cc(Cl)c32)n1)NC1COCC1O (stereo not shown) [Compound 760]
OCT1 substrate (OCT1): not a transporter substrate
